# Literature values, collected in patent US8383697B2 (priority 2009, dated 2013).
# Tests used:
# [1] = in vivo
# [2] = tested on: rats; details: in vivo
Structure (SMILES),LD50 [1] [mg/kg],Rat Oral LD50 [2]
CCO [ethanol],7060,–
"O=C(OOC(=O)c1ccccc1)c1ccccc1 [Initiator VII, benzoyl peroxide]",–,"7,710 mg/kg"
"CCCCCCCCCCCC(=O)OOC(=O)CCCCCCCCCCC [Initiator VIII, lauroyl peroxide]",–,"10,000 mg/kg"
"CC(C)(C)OOC(C)(C)C [Initiator X, tert-butyl peroxide]",–,"25,000 mg/kg"
"CC(C)(C)OOC(=O)c1ccccc1 [Initiator XI, tert-butyl peroxybenzoate]",–,"4,160 mg/kg"
